The values below come from patent US20070111265A1, “Ligands for mineralocorticoid receptor (MR) and methods for screening for or designing MR ligands” (Van Andel Research Institute, priority 2005, published 2007).

Molecules are shown by their SMILES. Residue numbers refer to the chain shown, from its start. Several values for one entry are separate records, joined by “and”; a condition that tells them apart may be missing. Identical values can stand only once. Like-named read-outs stand apart in the source and are kept apart here.

The target of one experiment is T1, MR L848Q (Homo sapiens, UniProt P08235, L848Q).
T1 construct: (S843P and L848Q) within the context of the full length wild type receptor; expressed in transfected cells; host or cells: Cos-7
T1 sequence (P08235 1-984 L848Q): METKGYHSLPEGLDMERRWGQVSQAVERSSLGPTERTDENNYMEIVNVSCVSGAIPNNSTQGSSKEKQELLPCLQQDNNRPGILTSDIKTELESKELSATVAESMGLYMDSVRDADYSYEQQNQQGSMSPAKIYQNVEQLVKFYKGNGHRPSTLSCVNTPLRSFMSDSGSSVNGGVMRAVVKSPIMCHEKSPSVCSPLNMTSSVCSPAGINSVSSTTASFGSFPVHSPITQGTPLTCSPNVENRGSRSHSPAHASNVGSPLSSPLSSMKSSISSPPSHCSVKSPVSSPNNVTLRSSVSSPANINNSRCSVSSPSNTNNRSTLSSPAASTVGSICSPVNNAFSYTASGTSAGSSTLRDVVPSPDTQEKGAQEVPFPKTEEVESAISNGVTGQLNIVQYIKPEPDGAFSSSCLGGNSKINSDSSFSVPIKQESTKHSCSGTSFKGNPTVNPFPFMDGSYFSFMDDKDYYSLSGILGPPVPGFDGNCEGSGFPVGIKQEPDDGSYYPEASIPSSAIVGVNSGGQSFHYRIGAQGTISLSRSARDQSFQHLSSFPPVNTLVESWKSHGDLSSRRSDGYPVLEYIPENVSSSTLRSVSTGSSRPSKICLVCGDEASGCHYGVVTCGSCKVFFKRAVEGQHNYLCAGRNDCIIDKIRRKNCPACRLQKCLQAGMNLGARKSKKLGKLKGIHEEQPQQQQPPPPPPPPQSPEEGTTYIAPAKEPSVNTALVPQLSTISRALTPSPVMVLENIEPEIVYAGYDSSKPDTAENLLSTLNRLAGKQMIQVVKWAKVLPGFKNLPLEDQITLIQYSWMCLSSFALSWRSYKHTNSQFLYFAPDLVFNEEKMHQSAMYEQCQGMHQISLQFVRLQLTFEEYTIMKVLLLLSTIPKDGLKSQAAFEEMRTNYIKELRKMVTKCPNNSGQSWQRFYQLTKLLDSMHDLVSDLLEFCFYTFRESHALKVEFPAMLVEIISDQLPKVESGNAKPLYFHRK
Description: MMTV luciferase reporter assay in Cos-7 cells. The experiment is classed as cell-based. On the procedure: (§1) Cos-7 cells were maintained in DMEM containing 10% fetal bovine serum (FBS) and were transiently transfected using Lipofectamine 2000 (Invitrogen). […] Cells were transfected in Opti-MEM with 400 ng of MMTV-Luc reporter plasmid and 400 ng of receptor expression vector (pRS vector) encoding full-length GR and MR respectively (ATCC). […] Luciferase data were normalized to Renilla activity as an internal control.
(§2) To validate the role of the key MR pocket residues in hormone recognition, the inventors mutated S843 and L848 to the corresponding GR residues (S843P and L848Q) within the context of the full length wild type receptor. […] We also performed reverse mutations in the full length GR receptor (P637S and Q642L) and tested them in the same MMTV reporter.
(In general: In a reporter assay the amount or activity of a reporter protein is the signal.)

The target of experiment [1] is T2, wild type MR (full-length) (Homo sapiens, UniProt P08235).
T2 construct: receptor expression vector (pRS vector) encoding full-length GR and MR respectively (ATCC); host or cells: Cos-7
T2 sequence (P08235 1-984): T1 sequence (P08235 1-984 L848Q) with Q848L
Description: MMTV luciferase reporter assay in Cos-7 cells. The experiment is classed as cell-based. As for the experimental part:
as §1, §2

Setting [2] is: Cos-7, MMTV-Luc, read-out: EC50, activation of wild type MR.
Setting [3] is: summary of FIG. 5 dose-response, read-out: affinity to MR (shown in FIG. 5).

For `C[C@]12C[C@H](O)[C@H]3[C@@H](CCC4=CC(=O)CC[C@@]43C)[C@@H]1CC[C@@H]2C(=O)CO` [corticosterone], the EC50 at MR L848Q (Cos-7, MMTV-Luc, read-out: EC50, activation of MR L848Q) is around 1000 pM; in experiment [1] (setting [2]), 80 pM and < 100 pM; in experiment [1] (setting [3]), 100 to 1000 pM. The “decrease of potency by L848Q mutation” value on MR L848Q (versus wild type MR) is reported as “at least 10 fold”. For the same molecule, the “potency of corticosterone relative to cortisol” value in experiment [1] (wild type MR) is listed as “roughly 10 fold”.
`C[C@]12CCC(=O)C=C1CC[C@@H]1[C@@H]2[C@@H](O)C[C@@]2(C)[C@H]1CC[C@]2(O)C(=O)CO` [cortisol]: the “activation of MR L848Q” value on MR L848Q (versus wild type MR) is “not affected”. The EC50 in experiment [1] (setting [2]) is 600 pM; in experiment [1] (setting [3]), 100 to 1000 pM.
